We go through 1 compound from patent US10501451B2, “Selective NR2B antagonists” (BRISTOL-MYERS SQUIBB COMPANY, priority 2015, dated 2019).

Molecules are shown by their SMILES.

Experiment [1] has as its target NR2B-subtype NMDA receptors (Rattus norvegicus (Rat), UniProt P35439+Q00960). As to the kind of experiment: Radioligand binding assay (3H Ro 25-6981 competition, rat forebrain membranes). Conditions: 3H Ro 25-6981 (4 nM), P-2, read-out: NR2B Binding Ki. The method, then: Radioligand Binding Assay. Binding experiments to determine binding to NR2B-subtype NMDA receptors were performed on forebrains of 8-10 weeks old male Sprague Dawley rats (Harlan, Netherlands) using ^3H Ro 25-6981 (Mutel V; Buchy D; Klingelschmidt A; Messer J; Bleuel Z; Kemp J A; Richards J G. Journal of Neurochemistry, 1998, 70(5):2147-2155. Rats were decapitated without anesthesia using a Guillotine (approved by animal ethics committee) and the harvested brains were snap-frozen and stored at −80° C. for 3-6 months for membrane preparation.
For membrane preparation, rat forebrains were thawed on ice for 20 minutes in homogenization buffer composed of 50 mM KH2PO4 (pH adjusted to 7.4 with KOH), 1 mM EDTA, 0.005% Triton X 100 and protease inhibitor cocktail (Sigma Aldrich). Thawed brains were homogenized using a Dounce homogenizer and centrifuged at 48000×g for 20 min. The pellet was resuspended in cold buffer and homogenized again using a Dounce homogenizer. Subsequently, the homogenate was aliquoted, snap-frozen and stored at −80° C. for not more than 3-4 months.
To perform the competition binding assay, thawed membrane homogenate was added to each well of a 96-well plate (20 μg/well). The experimental compounds were serially diluted in 100% DMSO and added to each row of the assay plate to achieve desired compound concentrations, keeping the DMSO concentration in the assay plate at 1.33% of the final reaction volume. Next, ^3H Ro 25-6981 (4 nM) was added to the assay plate. After incubation for 1 hr at room temperature, the membrane bound radioligand was harvested on to GF/B filter plates (treated with 0.5% PEI for 1 hr at room temperature). The filter plates were dried at 50° C. for 20 mins, incubated with microscint 20 for 10 minutes and finally, the counts were read on TopCount (Perkin Elmer).

The target of experiment [2] is brain-resident NR2B-subtype receptors (Mus musculus (Mouse), UniProt P35438+Q01097). The experiment is described as follows: Ex vivo occupancy assay. The experiment is classed as in vivo. Conditions: animals after dosing. The method, then:
Ex Vivo Occupancy Assay. […] 7-9 weeks old male CD-1 mice were dosed intravenously in a vehicle consisting of 10% dimethylacetamide, 40% PEG-400, 30% hydroxypropyl betacyclodextrin, and 30% water with experimental compounds and the forebrains were harvested 15 minutes post-dosing by decapitation. The brain samples were immediately snap-frozen and stored at −80° C. On the following day, the dosed brain samples were thawed on ice for 15-20 minutes followed by homogenization using Polytron for 10 seconds in cold homogenization buffer composed of 50 mM KH2PO4 (pH adjusted to 7.4 with KOH), 1 mM EDTA, 0.005% Triton X 100 and protease inhibitor cocktail (Sigma Aldrich). The crude homogenates were further homogenized using a Dounce homogenizer and the homogenized membrane aliquots from all animals were flash-frozen and stored at −80° C. until further use. The whole homogenization process was performed on ice. For determining occupancy, the membrane homogenates were first thawed on ice and then needle-homogenized using a 25 gauge needle. The homogenized membrane (6.4 mg/ml) was added to a 96-well plate followed by addition of ^3H Ro 25-6981 (6 nM). The reaction mixture was incubated for 5 minutes on a shaker at 4° C. and then harvested onto GF/B filter plates (treated with 0.5% PEI for 1 hr at room temperature). The filter plates were dried at 50° C. for 20 mins, incubated with microscint 20 for 10 minutes and read on TopCount (Perkin Elmer). Each dose or compound group consisted of 4-5 animals. The control group of animals was dosed with vehicle alone. Membrane from each animal was added in triplicates to the assay plate. Non-specific binding was determined using 10 μM Ro 25-6981 added to the wells containing membrane homogenates from vehicle-dosed animals. Specific counts/minute was converted to % occupancy at each dose of a compound for each animal using the following equation: […]
Drug levels were determined by mass spectroscopy in the usual manner. Drug levels in the blood plasma were 572 nM in at this dose, and drug levels in the homogenized brain tissue were 863 nM.

NR2B-subtype NMDA receptors, sequence (Q00960 27-1482, other chains not shown): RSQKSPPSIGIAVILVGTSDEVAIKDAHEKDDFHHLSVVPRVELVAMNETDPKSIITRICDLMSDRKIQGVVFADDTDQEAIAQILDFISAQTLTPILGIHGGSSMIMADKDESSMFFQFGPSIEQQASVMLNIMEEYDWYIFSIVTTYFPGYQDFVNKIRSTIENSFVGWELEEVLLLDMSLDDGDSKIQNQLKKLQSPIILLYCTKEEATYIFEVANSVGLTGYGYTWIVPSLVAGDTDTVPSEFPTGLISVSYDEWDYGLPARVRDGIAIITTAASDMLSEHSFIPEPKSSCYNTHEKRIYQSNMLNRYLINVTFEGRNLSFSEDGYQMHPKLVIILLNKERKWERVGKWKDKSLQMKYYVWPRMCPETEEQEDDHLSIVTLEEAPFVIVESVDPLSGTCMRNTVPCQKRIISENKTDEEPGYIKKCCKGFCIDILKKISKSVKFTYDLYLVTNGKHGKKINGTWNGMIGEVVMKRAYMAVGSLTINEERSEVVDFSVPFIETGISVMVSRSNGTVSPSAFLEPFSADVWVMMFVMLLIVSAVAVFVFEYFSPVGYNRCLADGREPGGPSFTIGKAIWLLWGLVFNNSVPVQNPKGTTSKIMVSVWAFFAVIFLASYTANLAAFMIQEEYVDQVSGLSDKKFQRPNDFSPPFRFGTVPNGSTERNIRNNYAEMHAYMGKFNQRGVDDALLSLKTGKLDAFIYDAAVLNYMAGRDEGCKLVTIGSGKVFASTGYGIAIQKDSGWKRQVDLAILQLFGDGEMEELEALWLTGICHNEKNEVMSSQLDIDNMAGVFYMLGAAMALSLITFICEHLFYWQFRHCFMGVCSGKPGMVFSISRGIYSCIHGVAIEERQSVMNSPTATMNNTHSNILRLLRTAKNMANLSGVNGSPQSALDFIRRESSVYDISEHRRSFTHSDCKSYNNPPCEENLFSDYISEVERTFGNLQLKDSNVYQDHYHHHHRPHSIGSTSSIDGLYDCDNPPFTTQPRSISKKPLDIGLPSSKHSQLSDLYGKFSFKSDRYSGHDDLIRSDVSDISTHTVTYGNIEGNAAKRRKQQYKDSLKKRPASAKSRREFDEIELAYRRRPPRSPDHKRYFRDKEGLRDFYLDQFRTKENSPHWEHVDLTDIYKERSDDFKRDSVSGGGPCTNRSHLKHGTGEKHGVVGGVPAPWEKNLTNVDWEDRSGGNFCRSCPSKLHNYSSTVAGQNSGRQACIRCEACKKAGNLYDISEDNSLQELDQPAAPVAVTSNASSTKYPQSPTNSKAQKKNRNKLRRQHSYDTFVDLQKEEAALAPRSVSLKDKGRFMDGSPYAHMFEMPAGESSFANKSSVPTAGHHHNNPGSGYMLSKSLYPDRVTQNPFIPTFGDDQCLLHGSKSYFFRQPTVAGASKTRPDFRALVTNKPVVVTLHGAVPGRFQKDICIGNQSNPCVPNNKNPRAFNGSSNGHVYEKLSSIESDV
brain-resident NR2B-subtype receptors, sequence (Q01097 27-1482, other chains not shown): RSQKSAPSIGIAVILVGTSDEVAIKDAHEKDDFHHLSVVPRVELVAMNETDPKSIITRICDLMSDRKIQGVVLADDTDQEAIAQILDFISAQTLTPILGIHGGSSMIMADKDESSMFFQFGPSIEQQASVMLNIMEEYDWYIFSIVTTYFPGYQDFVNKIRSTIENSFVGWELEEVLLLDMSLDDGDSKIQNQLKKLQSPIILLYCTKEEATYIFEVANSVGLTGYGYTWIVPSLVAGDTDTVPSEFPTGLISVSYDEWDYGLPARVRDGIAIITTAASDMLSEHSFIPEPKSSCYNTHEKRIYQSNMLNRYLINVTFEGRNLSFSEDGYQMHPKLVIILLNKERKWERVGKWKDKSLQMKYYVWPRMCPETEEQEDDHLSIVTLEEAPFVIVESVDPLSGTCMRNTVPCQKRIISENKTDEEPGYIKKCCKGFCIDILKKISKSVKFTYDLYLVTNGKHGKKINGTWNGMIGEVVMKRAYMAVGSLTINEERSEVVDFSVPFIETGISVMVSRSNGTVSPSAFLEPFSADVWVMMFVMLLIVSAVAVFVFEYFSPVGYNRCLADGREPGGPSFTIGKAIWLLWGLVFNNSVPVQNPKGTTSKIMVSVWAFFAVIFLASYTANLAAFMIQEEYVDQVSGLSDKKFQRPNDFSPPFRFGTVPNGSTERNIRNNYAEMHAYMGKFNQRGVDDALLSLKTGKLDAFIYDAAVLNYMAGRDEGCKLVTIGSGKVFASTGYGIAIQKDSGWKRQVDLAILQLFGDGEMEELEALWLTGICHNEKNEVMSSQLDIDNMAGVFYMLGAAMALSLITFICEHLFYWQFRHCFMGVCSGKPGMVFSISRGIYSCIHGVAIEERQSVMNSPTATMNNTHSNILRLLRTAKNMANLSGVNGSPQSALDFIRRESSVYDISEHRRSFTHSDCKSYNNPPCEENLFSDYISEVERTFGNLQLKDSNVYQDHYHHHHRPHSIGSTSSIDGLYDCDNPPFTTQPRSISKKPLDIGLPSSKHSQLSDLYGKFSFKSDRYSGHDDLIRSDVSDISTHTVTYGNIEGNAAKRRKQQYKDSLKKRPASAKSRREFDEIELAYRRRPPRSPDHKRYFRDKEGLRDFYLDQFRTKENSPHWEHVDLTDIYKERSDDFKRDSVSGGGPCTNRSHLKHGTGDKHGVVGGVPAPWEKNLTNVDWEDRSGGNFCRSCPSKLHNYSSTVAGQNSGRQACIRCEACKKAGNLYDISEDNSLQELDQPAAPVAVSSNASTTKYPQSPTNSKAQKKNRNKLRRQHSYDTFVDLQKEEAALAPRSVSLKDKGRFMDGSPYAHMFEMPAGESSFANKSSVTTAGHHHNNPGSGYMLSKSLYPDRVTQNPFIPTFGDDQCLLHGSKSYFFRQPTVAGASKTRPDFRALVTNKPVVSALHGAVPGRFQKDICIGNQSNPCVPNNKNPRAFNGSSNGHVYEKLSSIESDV

As to `Cc1ccc(CN2OCC(N3CCC(c4ccc(O)cc4)CC3)C2=O)cc1` (single isomer, unassigned) [Example 2, P-2, 4-(4-(4-hydroxyphenyl)piperidin-1-yl)-2-(4-methylbenzyl)isoxazolidin-3-one], the Ki in experiment [1] came to 2.79 nM. Further, the “occupancy of brain-resident NR2B-subtype receptors after dosing (in words)” value in experiment [2] is reported as “occupies brain-resident NR2B-subtype receptors”.

One may read the Ki as a measure of affinity in units of concentration, obtained from inhibition or displacement.
